The values that follow come from US20060134794A1, “Method of detecting the presence and/or progression of cancer” (priority 2004, published 2006).

One assay deals with age-related NOX (arNOX). The experiment in a line: NOX assay with human mammary epithelial (non-cancer) MCF-10A cells: arNOX. It is filed as cell-based. The note with it: 100 μM AgO added in 1.7% phosphoric acid; late passage MCF-10A cells. As for the experimental part:
(§1) FIG. 6 is as for FIG. 5 except that the assay was with 10^6 human mammary epithelial (non-cancer) MCF-10A cells. These cells lacked tNOX as their surface and contained predominantly a constitutive CNOX (single arrows) which was not inhibited by the 100 μM AgO added in 1.7% phosphoric acid. The MCF-10A cells were late passage cells and contained, as well, an age-related NOX (arNOX) with a period length of 26 minutes. This activity was inhibited by the AgO as shown in Panel B.
(§2) Growth of cells. Cells were grown in culture in a humidified atmosphere of 5% CO2 in air at 37° C. Media were renewed every 2 to 3 days. HeLa (ATCC CCL2) cells were grown in 175-cm^2 flasks in Minimal Essential Medium (Gibco), pH 7.4 at 37° with 10% fetal bovine serum (heat-inactivated), plus 50 mg/L gentamycin sulfate (Sigma). Cells were harvested by scraping and taken up in 140 mM NaCl, 5 mM KCl, 0.7 mM Na2HPO4 and 25 mM Tris, pH 7.4, to a final cell concentration of 0.1 g wet weight (gww) per mL. […]
(§3) Spectrophotometric assay of NADH Oxidase. NAD(P)H oxidase activities were measured using paired Hitachi U3210 spectrophotometers over successive 5-minutes intervals (two to four or more at low inhibitory concentrations) at 37° C. The activity was determined as the disappearance of NAD(P)H measured at 340 nm. […]

Assay [1] addresses T1, constitutive CNOX (Homo sapiens, UniProt Q8TC92).
T1 sequence (Q8TC92 1-643): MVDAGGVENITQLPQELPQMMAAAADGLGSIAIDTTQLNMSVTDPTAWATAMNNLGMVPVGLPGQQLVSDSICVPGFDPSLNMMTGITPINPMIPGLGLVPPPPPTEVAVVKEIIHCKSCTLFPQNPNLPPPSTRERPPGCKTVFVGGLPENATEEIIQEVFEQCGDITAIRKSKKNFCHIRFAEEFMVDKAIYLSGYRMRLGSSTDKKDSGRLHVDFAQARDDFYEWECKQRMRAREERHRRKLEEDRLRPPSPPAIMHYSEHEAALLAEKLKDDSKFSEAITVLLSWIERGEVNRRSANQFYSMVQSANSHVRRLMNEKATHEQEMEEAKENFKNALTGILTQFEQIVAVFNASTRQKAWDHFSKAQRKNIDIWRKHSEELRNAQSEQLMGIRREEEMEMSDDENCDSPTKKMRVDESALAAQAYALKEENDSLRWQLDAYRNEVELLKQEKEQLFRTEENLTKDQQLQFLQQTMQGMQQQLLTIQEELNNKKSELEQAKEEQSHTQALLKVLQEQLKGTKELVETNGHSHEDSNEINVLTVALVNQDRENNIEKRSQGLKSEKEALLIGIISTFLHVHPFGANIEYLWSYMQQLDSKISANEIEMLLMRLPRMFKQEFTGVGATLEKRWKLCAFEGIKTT
As to the kind of experiment: NOX assay with human mammary epithelial (non-cancer) MCF-10A cells: CNOX. Type of assay: cell-based. Also noted: solubilized ECTO-NOX activities released from the surface of HeLa cells by treatment at pH 5; endogenous in cells; host or cells: HeLa S cells, cell-free pH 5 extract. The note with it: 100 μM AgO added in 1.7% phosphoric acid; 10^6 MCF-10A cells. How it is done: as §1, §2, §3

In assay [2] the target is T1, constitutive CNOX. The experiment in a line: NOX assay with human mammary adenocarcinoma (BT-20) cells: CNOX. It is filed as cell-based. Also noted: endogenous in cells. The conditions noted are these: 100 μM AgO; 2×10^6 BT-20 cells. How it is done:
(§4) FIG. 5 presents results from an assay using 2×10^6 human mammary adenocarcinoma (BT-20) cells carried out as described for FIG. 2. Panel A (no addition) received only the phosphoric acid (0.0017%).
as §2, with “mL. MCF-10A human mammary epithelial cells were cultured in a 1:1 mixture of Ham's F12 medium and Dulbecco's Modified Eagle's medium containing glutamine […], hydrocortisone (0.5 μg/mL), EGF (20 ng/mL), and 5% horse serum. Medium was renewed every 2-3 days.” for “mL.”
as §3

Assay [3] deals with T2, recombinant form of tNOX (nus tNOX) (Homo sapiens, UniProt Q16206).
T2 construct: nus tag
T2 sequence (Q16206 1-610): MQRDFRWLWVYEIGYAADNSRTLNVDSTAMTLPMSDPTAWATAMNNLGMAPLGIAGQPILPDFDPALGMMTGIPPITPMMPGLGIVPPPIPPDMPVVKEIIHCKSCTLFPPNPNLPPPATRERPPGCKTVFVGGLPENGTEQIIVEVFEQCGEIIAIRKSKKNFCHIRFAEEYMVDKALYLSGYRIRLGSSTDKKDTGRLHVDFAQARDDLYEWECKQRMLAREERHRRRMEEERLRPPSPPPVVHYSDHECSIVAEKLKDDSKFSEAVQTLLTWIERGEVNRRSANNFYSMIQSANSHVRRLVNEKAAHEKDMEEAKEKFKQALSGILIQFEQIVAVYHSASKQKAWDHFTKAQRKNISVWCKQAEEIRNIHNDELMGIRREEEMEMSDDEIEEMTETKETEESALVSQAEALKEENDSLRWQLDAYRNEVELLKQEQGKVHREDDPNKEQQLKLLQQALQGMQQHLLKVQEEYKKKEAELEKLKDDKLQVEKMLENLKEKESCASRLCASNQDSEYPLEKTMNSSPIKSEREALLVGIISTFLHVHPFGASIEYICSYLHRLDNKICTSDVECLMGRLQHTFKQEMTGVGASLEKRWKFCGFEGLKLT
As to the kind of experiment: standard NOX assay (oxidation of NADH, decrease in A340) with recombinant tNOX. Type of assay: biochemical. The conditions noted are these: 100 μM AgO in 1.7% phosphoric acid added after 45 minutes; 25° C. As for the experimental part:
In panel A, an equivalent amount of phosphoric acid was added. The assay measured oxidation of NADH (decrease in A340) in a standard NOX assay at 25° C.
(§5) Spectrophotometric assay of NADH Oxidase. NAD(P)H oxidase activities were measured using paired Hitachi U3210 spectrophotometers over successive 5-minutes intervals (two to four or more at low inhibitory concentrations) at 37° C. The activity was determined as the disappearance of NAD(P)H measured at 340 nm. The reaction mixture included sample, 50 mM Tris-MES, pH 7.0, 2 mM KCN, and 150 μM NAD(P)H in a total volume of 2.5 ml at 37° C. with stirring. A millimolar extinction coefficient of 6.22 was used to determine NAD(P)H disappearance.

Assay [4] concerns the target T3, tNOX (Homo sapiens, UniProt Q16206).
T3 sequence (Q16206 1-610): T2 sequence (Q16206 1-610)
As to the kind of experiment: NOX (NADH oxidase) assay of solubilized ECTO-NOX activities released from the surface of HeLa cells: tNOX. Also noted: solubilized ECTO-NOX activities released from the surface of HeLa cells by treatment at pH 5; endogenous in cells; host or cells: HeLa S cells, cell-free pH 5 extract. It is filed as biochemical. How it is done:
(§6) FIG. 2 is similar to FIG. 1 except that a preparation of solubilized ECTO-NOX activities released from the surface of HeLa cells by treatment at pH 5 (del Castillo-Olivares et al., Arch. Biochem. Biophys. 358: 125-140, 1998) was used as the enzyme source. The AgO was dissolved in DMSO added at a final concentration of AgO of 1 mM. The final concentration of DMSO added in both A and B after 45 minutes was 0.1%. The assays were then continued for and additional 45 minutes. The HeLa extracts contain both the constitutive CNOX (single arrows denoting a 24 minutes period length) and two activity maxima separated by 6 minutes and labeled (1) and (2) which are tNOX (double arrows). With addition of AgO, both tNOX activities are inhibited while the constitutive CNOX remain unaffected. Values are based on three experiments and report means±standard deviations to establish statistical reliability of the data.
FIG. 3 represents the response of total NOX (NADH oxidase) activity of the preparation of FIG. 2 as a function of the logarithm of AgO concentration. The AgO was dissolved in 1.7% phosphoric acid and the dilutions were prepared in water. […] The EC50 of tNOX inhibition was estimated to be about 5 μM.
as §5
Preparation of HeLa Cells and Cell-Free Extracts. HeLa S cells were collected by centrifugation and shipped frozen in 0.1 M sodium acetate, pH 5, in a ratio of 1 mL of packed cell volume to 1 mL of acetate (Cellex Biosciences). The cells were thawed at room temperature, resuspended, and incutated at 37° for 1 hr to release the protein. […]

The target in assay [5] is T3, tNOX. The experiment in a line: NOX assay with human mammary adenocarcinoma (BT-20) cells: tNOX. It is filed as cell-based. Also noted: endogenous in cells. The conditions noted are these: 100 μM AgO; 2×10^6 BT-20 cells. How it is done: as §4
as §2, with “mL. MCF-10A human mammary epithelial cells were cultured in a 1:1 mixture of Ham's F12 medium and Dulbecco's Modified Eagle's medium containing glutamine […], hydrocortisone (0.5 μg/mL), EGF (20 ng/mL), and 5% horse serum. Medium was renewed every 2-3 days.” for “mL.”
as §3

Assay [6] concerns the target T1, constitutive CNOX. As to the kind of experiment: NOX (NADH oxidase) assay of solubilized ECTO-NOX activities released from the surface of HeLa cells: CNOX. Type of assay: biochemical. On the set-up: solubilized ECTO-NOX activities released from the surface of HeLa cells by treatment at pH 5; endogenous in cells; host or cells: HeLa S cells, cell-free pH 5 extract. How it is done:
as §6
FIG. 3 represents the response of total NOX (NADH oxidase) activity of the preparation of FIG. 2 as a function of the logarithm of AgO concentration. […]
as §3

The subject of assay [7] is constitutive CNOX. The experiment in a line: NOX assay with solubilized soybean plasma membranes. Type of assay: biochemical, soybean (Glycine max). The note with it: plasma membranes solubilized in 0.1% Triton X-100 overnight. As for the experimental part: FIG. 7 is similar to FIG. 6 except that plasma membranes isolated from etiolated hypocotyls (stems) of soybean (Glycine max) were the enzyme source. The plasma membranes were solubilized in 0.1% Triton X-100 overnight prior to assay. The soybean plasma membranes contain only a constitutive CNOX which is unresponsive to AgO.
as §5

The subject of assay [8] is aging-related isoform (arNOX). The conditions noted are these: previous findings described in the background; cited from earlier work.
Where [9] appears, read: AgO dissolved in DMSO, final concentration 1 mM, added after 45 minutes.

On to `[O]=[Ag]` [AgO, silver (II) oxide], for which, in the assay with age-related NOX (arNOX), the “inhibition of age-related NOX (arNOX) activity” value is “inhibited”. For the same molecule, the “inhibition of constitutive CNOX” value on constitutive CNOX [1] and at constitutive CNOX [6] (AgO concentration series in 1.7% phosphoric acid/water) was “not inhibited” each time. At constitutive CNOX [2], the “effect on constitutive CNOX” value is reported as “without effect”. Further, the “inhibition of recombinant tNOX NADH oxidase activity” value in assay [3] is “inhibited completely”. Moreover, the “inhibition of tNOX” value on tNOX [4] (AgO concentration of 100 μM (10^−4M)) is on record as “completely inhibited”. At tNOX [4] (AgO dissolved in 1.7% phosphoric acid, dilutions in water, estimated from total NOX activity, read-out: EC50 of tNOX inhibition), the EC50 (commonly the concentration at which the effect is half-maximal) is roughly 5 µM. Moreover, at tNOX [4] (setting [9]), the “inhibition of tNOX activities” value is recorded as “inhibited”. On tNOX [5], the “inhibition of the two activity maxima associated with tNOX” value was “inhibited”. In addition, the “effect on constitutive CNOX activity” value at constitutive CNOX [6] (setting [9]) is “unaffected”. Moreover, the “response of constitutive CNOX to AgO” value with constitutive CNOX [7] is given as “unresponsive”.

As to `COC1=C(OC)C(=O)C(C/C=C(\C)CC/C=C(\C)CC/C=C(\C)CC/C=C(\C)CC/C=C(\C)CC/C=C(\C)CC/C=C(\C)CC/C=C(\C)CC/C=C(\C)CCC=C(C)C)=C(C)C1=O` [coenzyme Q], in assay [8], the “effect on generation of superoxide by arNOX” value was “inhibition”.
